From patent publication US20230192617A1, “AZABICYCLIC(THIO)AMIDES AS FUNGICIDAL COMPOUNDS” (Bayer CropScience Aktiengesellschaft, priority 2020, published 2023)

Experiments:
[1] = test system: Pyrenophora teres; assay: B-10. Pyrenophora teres in vitro cell test; assay type: cell-based; conditions: 144 h, 20 ppm of active ingredient, 6 days incubation, liquid culture, absorbance, read-out: efficacy (inhibition of fungal growth)
Procedure: (§1) B-10. Pyrenophora teres In Vitro Cell Test [table] Fungicides were solubilized in DMSO and the solution used to prepare the required range of concentrations. The final concentration of DMSO used in the assay was ≤1%. A spore suspension of P. teres was prepared and diluted to the desired spore density. Fungicides were evaluated for their ability to inhibit spore germination and mycelium growth in liquid culture assay. The compounds were added in the desired concentration to the culture medium with spores. After 6 days incubation, fungi-toxicity of compounds was determined by spectrometric measurement of mycelium growth. Inhibition of fungal growth was determined by comparing the absorbance values in wells containing the fungicides with the absorbance in control wells without fungicides.

[2] = Measurement of Log P values by HPLC on reversed phase columns (EEC directive 79/831 Annex V.A8); assay type: physicochemical; conditions: reversed phase HPLC column, method [a]: LC-UV, acidic range, 0.1% formic acid in water and acetonitrile as eluent
Procedure: A-1.1. Measurement of Log P Values
Measurement of Log P values as provided herein was performed according to EEC directive 79/831 Annex V.A8 by HPLC (High Performance Liquid Chromatography) on reversed phase columns with the following methods:
^[a] Log P value is determined by measurement of LC-UV, in an acidic range, with 0.1% formic acid in water and acetonitrile as eluent (linear gradient from 10% acetonitrile to 95% acetonitrile).
^[b] Log P value is determined by measurement of LC-UV, in a neutral range, with 0.001 molar ammonium acetate solution in water and acetonitrile as eluent (linear gradient from 10% acetonitrile to 95% acetonitrile).
^[c] Log P value is determined by measurement of LC-UV, in an acidic range, with 0.1% phosphoric acid and acetonitrile as eluent (linear gradient from 10% acetonitrile to 95% acetonitrile).
If more than one Log P value is available within the same method, all the values are given and separated by “+”. […]

[3] = test system: Botrytis cinerea; assay: B-11. Botrytis cinerea in vitro cell test; assay type: cell-based; conditions: 144 h, 20 ppm of active ingredient, 6 days incubation, liquid culture, absorbance, read-out: efficacy (inhibition of fungal growth)
Procedure: as §1, with “B-11. Botrytis cinerea” for “B-10. Pyrenophora teres”, “B. cinerea” for “P. teres”

[4] = test system: Colletotrichum lindemuthianum; assay: B-8. Colletotrichum lindemuthianum in vitro cell test; assay type: cell-based; conditions: 144 h, 20 ppm of active ingredient, 6 days incubation, liquid culture, absorbance, read-out: efficacy (inhibition of fungal growth)
Procedure: as §1, with “B-8. Colletotrichum lindemuthianum In” for “B-10. Pyrenophora teres In”, “of C. lindemuthianum” for “of P. teres”, “inhibit spores” for “inhibit spore”

[5] = test system: Alternaria alternata; assay: Alternaria alternata in vitro cell test; assay type: cell-based; conditions: 120 h, 20 ppm of active ingredient, liquid culture, 5 days incubation, spectrometric measurement of mycelium growth, read-out: efficacy (inhibition of fungal growth)
Procedure: as §1, with “B-6. Alternaria alternata” for “B-10. Pyrenophora teres”, “A. alternata” for “P. teres”, “5” for “6”

[6] = test system: Alternaria brassicae; assay: In vivo preventive test on Alternaria brassicae (leaf spot on radish or cabbage); conditions: 500 ppm of active ingredient, preventive spray on radish or cabbage, evaluated 3 to 4 days after inoculation, read-out: efficacy
Procedure: B-1. In Vivo Preventive Test on Alternaria brassicae (Leaf Spot on Radish or Cabbage) [table] The active ingredients were made soluble and homogenized in a mixture of Dimethyl sulfoxide/Acetone/Tween® 80 and then diluted in water to the desired concentration. The young plants of radish or cabbage were treated by spraying the active ingredient prepared as described above. Control plants were treated only with an aqueous solution of Acetone/Dimethyl sulfoxide/Tween® 80. After 24 hours, the plants were contaminated by spraying the leaves with an aqueous suspension of Alternaria brassicae spores. The contaminated radish or cabbage plants were incubated for 3 to 4 days at 20° C. and at 100% relative humidity.

[7] = test system: Botrytis cinerea; assay: In vivo preventive test on Botrytis cinerea (grey mould); conditions: 500 ppm of active ingredient, preventive spray on gherkin or cabbage, evaluated 4 to 5 days after inoculation, read-out: efficacy
Procedure: B-2. In Vivo Preventive Test on Botrytis cinerea (Grey Mould) [table] The active ingredients were made soluble and homogenized in a mixture of Dimethyl sulfoxide/Acetone/Tween® 80 and then diluted in water to the desired concentration. The young plants of gherkin or cabbage were treated by spraying the active ingredient prepared as described above. Control plants were treated only with an aqueous solution of Acetone/Dimethyl sulfoxide/Tween® 80. After 24 hours, the plants were contaminated by spraying the leaves with an aqueous suspension of Botrytis cinerea spores. The contaminated gherkin plants were incubated for 4 to 5 days at 17° C. and at 90% relative humidity. The contaminated cabbage plants were incubated for 4 to 5 days at 20° C. and at 100% relative humidity.

Compound	inhibition at 20 ppm [1]	chromatographic logP [2]	inhibition at 20 ppm [3]	inhibition at 20 ppm [4]	inhibition at 20 ppm [5]	pest or weed control at 500 ppm [6]	pest or weed control at 500 ppm [7]
O=C(NCC(F)(F)c1cc(Cl)sc1Cl)c1c(Oc2cccc(C(F)(F)F)c2)nnc2ccccc12 [I-199]	90 to 100%	4.68	80 to 89%	–	–	–	–
O=C(N[C@H]1CCCc2ccc(Cl)cc21)c1c(Oc2cccc(C(F)(F)F)c2)nnc2ccccc12 [I-094]	90 to 100%	4.44	90 to 100%	90 to 100%	70 to 79%	–	–
C[C@H](NC(=O)c1c(Oc2cccc(Cl)c2)nnc2ccccc12)c1cccc(C(F)(F)F)c1 (racemic) [I-016]	–	3.9	–	80 to 89%	80 to 89%	90 to 100%	90 to 100%
O=C(NCC(F)(F)c1ccc(Cl)cn1)c1c(Oc2cccc(C(F)F)c2)nnc2ccccc12 [I-036]	–	3.2	–	90 to 100%	90 to 100%	90 to 100%	90 to 100%
Cc1ccc(C(F)CNC(=O)c2c(Oc3cccc(C(F)F)c3)nnc3c2CCCC3)c(C)c1 (centres unmarked) [I-135]	90 to 100%	3.53	90 to 100%	90 to 100%	90 to 100%	–	–
O=C(NCCOc1ccc(C(F)(F)F)cc1Cl)c1c(Oc2cccc(C(F)(F)F)c2)nnc2ccccc12 [I-203]	90 to 100%	4.33	70 to 79%	–	–	–	–
O=C(N[C@H]1CCCc2ccc(Br)cc21)c1c(Oc2cccc(C(F)(F)F)c2)nnc2ccccc12 (racemic) [I-096]	90 to 100%	4.54	90 to 100%	90 to 100%	–	–	–
O=C(NCCc1cccc2[nH]ccc12)c1c(Oc2cccc(C(F)(F)F)c2)nnc2ccccc12 [I-161]	90 to 100%	–	90 to 100%	–	–	–	–
Cc1ccc(CCNC(=O)c2c(Oc3cccc(C(F)(F)F)c3)nnc3cnccc23)c(C)c1 [I-011]	–	3.88	–	–	90 to 100%	80 to 89%	90 to 100%
CC1(C)Cc2cc(Cl)c(F)cc2[C@@H](NC(=O)c2c(Oc3cccc(C(F)(F)F)c3)nnc3ccccc23)C1 (racemic) [I-197]	90 to 100%	4.82	90 to 100%	–	–	–	–
O=C(NCC(F)(F)c1ccc(Cl)cc1)c1c(Oc2cccc(C(F)(F)F)c2)cnc2ccccc12 [I-037]	–	4.23	90 to 100%	90 to 100%	–	–	80 to 89%
O=C(NCC(F)(F)c1ccc(Br)cc1Cl)c1c(Oc2cccc(Cl)c2)nnc2ccccc12 [I-013]	–	4.46	–	90 to 100%	90 to 100%	90 to 100%	90 to 100%
O=C(NCCc1cnc(C(F)(F)F)nc1)c1c(Oc2cccc(C(F)(F)F)c2)nnc2ccccc12 [I-195]	90 to 100%	3.22	–	–	–	–	–
N#Cc1ccc(CONC(=O)c2c(Oc3cccc(C(F)(F)F)c3)nnc3ccccc23)cc1 [I-088]	–	3.07	90 to 100%	90 to 100%	–	–	–
Cc1ccc2c(C(=O)NCC(F)(F)c3ccc(Br)cc3Cl)c(Oc3cccc(C(F)(F)F)c3)nnc2c1 [I-045]	–	4.64	–	90 to 100%	90 to 100%	90 to 100%	90 to 100%
CCc1cccc2c1OCC[C@@H]2NC(=O)c1c(Oc2cccc(C(F)(F)F)c2)nnc2ccccc12 (racemic) [I-168]	90 to 100%	4.45	90 to 100%	90 to 100%	–	–	–
CC(C)CON(Cc1ccccc1)C(=O)c1c(Oc2cccc(C(F)(F)F)c2)nnc2ccccc12 [I-170]	–	4.86	90 to 100%	70 to 79%	–	–	–
O=C(N[C@H]1CCOc2ccc(F)cc21)c1c(Oc2cccc(C(F)(F)F)c2)nnc2ccccc12 (racemic) [I-165]	90 to 100%	3.69	–	–	–	–	–
O=C(NCCc1ccc2[nH]ccc2c1)c1c(Oc2cccc(C(F)(F)F)c2)nnc2ccccc12 [I-249]	90 to 100%	3.3	90 to 100%	–	–	–	–
N#Cc1cccc(Oc2nnc3ccccc3c2C(=O)NCC(F)(F)c2ccc(Cl)cc2)c1 [I-160]	–	3.33	–	90 to 100%	90 to 100%	80 to 89%	–
Cc1ccc2c(c1)[C@@H](NC(=O)c1c(Oc3cccc(C(F)(F)F)c3)nnc3ccccc13)CC(C)(C)O2 (racemic) [I-173]	90 to 100%	4.44	90 to 100%	–	–	–	–
Cc1ccc(C(F)(F)F)cc1Oc1nnc2ccccc2c1C(=O)NC[C@H](F)c1ccc(Cl)cc1Cl (racemic) [I-183]	70 to 79%	4.74	–	–	–	–	–
N#Cc1cccc(Oc2nnc3ccccc3c2C(=O)NC[C@H](F)c2ccc(Br)cc2Cl)c1 (racemic) [I-031]	–	3.65	–	90 to 100%	90 to 100%	90 to 100%	90 to 100%
O=C(NCC(F)(F)c1ccc(Br)cc1Cl)c1c(Oc2ccc(Cl)cc2)nnc2ccccc12 [I-019]	–	4.46	–	–	80 to 89%	70 to 79%	90 to 100%
Cc1cc(C)n(CCNC(=O)c2c(Oc3cccc(C(F)(F)F)c3)nnc3ccccc23)n1 [I-240]	90 to 100%	2.78	80 to 89%	–	–	–	–
COc1cc(OC)nc(Oc2cnc3ccccc3c2C(=O)NCC(F)(F)c2ccc(C)cc2C)n1 [I-187]	90 to 100%	3.74	–	–	70 to 79%	–	–
O=C(N[C@H]1CCS(=O)(=O)c2ccccc21)c1c(Oc2cccc(C(F)(F)F)c2)nnc2ccccc12 [I-174]	80 to 89%	2.98	90 to 100%	80 to 89%	–	–	–
